Like-named read-outs stand apart in the source and are kept apart here.
Tests used:
PAMPA assay = format: in vitro ADME
Excerpt: (§1) To gain further information regarding intracellular compound localization, studies were extended to include a marker for the ER (Figure 8). The staining pattern for the individual probes are shown in Figure 8A (ER), Figure 8B (Lysosome) and Figure 8D (probe 9a). […] Moreover, when all three channels were merged, white specks were observed, indicating co-localization of probe 9a with cellular structures that are stained by both ER and lysosomal marker dyes (Figure 8F). […] These mechanisms provide a plausible explanation for the lower potency of compound 9 compared to compound 10. Finally, in vitro ADME (absorption, distribution, metabolism, and elimination) profiles were evaluated for compounds 9 and 10 to compare with the obtained cellular data (Supplementary Material, Figure S10). The aqueous solubility properties at physiological pH (7.40) of compounds 9 and 10 were good compared to controls. […] The combined findings indicate that the steric-effects of the hydroxysuccinate appendage of compound 10 renders it less prone to degradation by lysosomal activity or other competing cellular removal mechanisms.

SUP-B15 [1] = assay: ApoTox-Glo triplex assay; format: cell-based, human; conditions: SUP-B15, 36 h; 9 0.2–100 µM, 10 0.02–10 µM
Protocol: Cells (9.5 × 10^4 cells/well in 75 µL) were dispensed in 96-well black flat bottom (8807BC, Corning) plates. The cells were incubated for 12 h at 37 °C and treated with compounds (25 µL) for 36 h. DMSO was used as a negative control and camptothecan was used as the positive control. Then, the experiment was stopped by adding the Viability/Cytotoxicity Reagent, and briefly mixed by orbital shaking (300–500 rpm for ~30 s). Plates were incubated for 30 min at 37 °C and fluorescence was measured at the wavelength 400Ex/505Em for viability and 485Ex/520Em for cytotoxicity in an Envision plate reader (Perkin Elmer). Finally, the Caspase-Glo® 3/7 Reagent was added, and the plates were mixed by orbital shaking (300–500 rpm for ~30 s), followed by an additional 30 min incubation at RT. Luminescence was recorded with a plate reader (Envision, Perkin Elmer) to capture caspase 3/7 activation and determine apoptosis induction.

Plasma stability assay = format: in vitro ADME; conditions: read-out: plasma stability t1/2
Excerpt: as §1

SUP-B15 [2] = assay: Cell cycle analysis (PI DNA content, flow cytometry); format: cell-based, human; conditions: SUP-B15, 24 h; silvestrol 5 µM, 8 5 µM, 9 10 µM, 10 5 µM, 12 10 µM, 13 10 µM
Protocol: (§2) The samples were probed with AnnexinV-FITC (Roche/Boehringer Mannheim, Indianapolis, IN, USA) according to the manufacturer’s instructions. KOPN-8 or SUB-P15 cells were plated (1.00 × 10^6 cells/plate) and incubated for 12 h and incubated at 37 °C. Then, cells were treated with compounds or controls for 24 h. Cells were stained with AnnexinV-FITC, PI and the staining profiles were determined with FACScan and Cell-Quest software. For cellular DNA content, the same cell treatment as above was performed. Then, cells were fixed in cold 75% ethanol, treated with RNase and then stained with PI solution (50 µg/mL). Cell cycle distribution was analyzed with the FACSCalibur analyzer (BD Biosciences, Franklin Lakes, NJ, USA) and Cell-Quest software. The percentage of DNA content at different phases of the cell cycle was analyzed with ModFit-software (version 5.0, Verity Software House, Topsham, ME, USA).

KOPN-8 = assay: as above; format: cell-based, human; conditions: KOPN-8, 24 h; silvestrol 5 µM, 8 5 µM, 9 10 µM, 10 5 µM, 12 10 µM, 13 10 µM
Protocol: as §2

MDA-MB-231 = assay: Propidium iodide (PI) assay, 48 h; format: cell-based, human; conditions: MDA-MB-231, 48 h
Protocol: The first step was to evaluate if the compounds display cytotoxicity against the adherent cells. Propidium iodide (PI) assay was performed for the drug resistant solid tumor cellular models (triple negative breast cancer models: SUM149 and MDA-MB-231) for 48 h (Figure 5) [30, 31].

| PAMPA permeability (PAMPA assay) | SMILES | PAMPA permeability (PAMPA assay; PAMPA) | caspase 3/7 activity (SUP-B15 [1]) | cytotoxicity by membrane integrity (bis-AAF-RF110) (SUP-B15 [1]) | viability (GF-AFC) (SUP-B15 [1]) | half-life (Plasma stability assay; human plasma) [h] | half-life (Plasma stability assay; mouse plasma) [h] | cell cycle effect (SUP-B15 [2]) | cell cycle effect (KOPN-8) | activity in PI assay (MDA-MB-231) |
| --- | --- | --- | --- | --- | --- | --- | --- | --- | --- | --- |
|  | COC1=C[C@]23CCCN2CCc2cc4c(cc2[C@@H]3[C@@H]1O)OCO4 [Compound 9, cephalotaxine] | favorable permeability properties | increased caspase 3/7 activity | little cytotoxic effects | decreased viability | > 25 | > 25 | no significant cell arrest | no significant cell arrest | substantial activity |
| favorable permeability properties | COC(=O)C[C@](O)(CCCC(C)(C)O)C(=O)O[C@@H]1C(OC)=C[C@]23CCCN2CCc2cc4c(cc2[C@H]13)OCO4 [Compound 10, homoharringtonine, reference compound] |  | increased caspase 3/7 activity | little cytotoxic effects | decreased viability | > 12 | < 1 | almost identical to silvestrol | almost identical to silvestrol | substantial activity |

Reference: article PMC6571673, “Cytostatic and Cytotoxic Natural Products against Cancer Cell Models” (Molecules, 2019)
